# Assay results from publication PMC10762035, “Molecular basis of human trace amine-associated receptor 1 activation” (Nature Communications, 2024).
# Substitutions are numbered along the chain they refer to. Several values for one entry are separate records, joined by “and”; a condition that tells them apart may be missing. Identical values can stand only once. Like-named read-outs stand apart in the source and are kept apart here.
# Key:
# Format in all cases: cell-based
# hTA1 V184P = biological target: T1, hTA1 V184P (Homo sapiens, UniProt Q96RJ0, V184P); experiment: GloSensor cAMP accumulation assay, V184P mutant; conditions: for cAMP accumulation response, single replicate values (source data, Supplementary Figure 5): hTA1 V184P (N=2), log[Compound]
# T1 construct: expressed in transfected cells; host or cells: HEK293T
# T1 sequence (Q96RJ0 1-339 V184P): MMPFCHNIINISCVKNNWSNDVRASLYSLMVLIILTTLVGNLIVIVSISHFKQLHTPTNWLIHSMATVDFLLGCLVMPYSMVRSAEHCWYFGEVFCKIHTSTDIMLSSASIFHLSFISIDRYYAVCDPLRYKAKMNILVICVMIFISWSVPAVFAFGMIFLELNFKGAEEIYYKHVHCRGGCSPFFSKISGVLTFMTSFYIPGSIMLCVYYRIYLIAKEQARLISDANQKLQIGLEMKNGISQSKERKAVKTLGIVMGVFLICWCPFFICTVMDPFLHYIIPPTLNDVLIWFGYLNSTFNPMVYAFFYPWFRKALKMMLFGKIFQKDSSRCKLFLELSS
# hTA1 C96S = biological target: T2, hTA1 C96S (Homo sapiens, UniProt Q96RJ0, C96S); experiment: GloSensor cAMP accumulation assay, C96S mutant; conditions: log[Compound]
# T2 construct: expressed in transfected cells; host or cells: HEK293T
# T2 sequence (Q96RJ0 1-339 C96S): T1 sequence (Q96RJ0 1-339 V184P) with C96S, P184V
# hTA1 b2N = biological target: T3, hTA1 b2N (Homo sapiens, UniProt Q96RJ0); experiment: GloSensor cAMP accumulation assay, b2N construct
# T3 construct: read by me as the first 25 residues of β2AR (N); expressed in transfected cells; host or cells: HEK293T
# T3 sequence (Q96RJ0 with tags, fused parts or gaps): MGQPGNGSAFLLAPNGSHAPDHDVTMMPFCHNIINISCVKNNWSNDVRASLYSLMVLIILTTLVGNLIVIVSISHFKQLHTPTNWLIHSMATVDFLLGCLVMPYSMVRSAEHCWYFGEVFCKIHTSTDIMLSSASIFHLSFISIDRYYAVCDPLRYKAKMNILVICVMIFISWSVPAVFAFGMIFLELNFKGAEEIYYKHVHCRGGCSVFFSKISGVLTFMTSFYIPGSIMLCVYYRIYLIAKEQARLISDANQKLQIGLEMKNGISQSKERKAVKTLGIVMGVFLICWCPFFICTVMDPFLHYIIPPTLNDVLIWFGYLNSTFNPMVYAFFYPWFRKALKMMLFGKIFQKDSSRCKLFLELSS
structure (smiles),measurement,setting,value
CCC(CC1COC(N)=N1)c1ccccc1 (stereo not shown) [Ro5256390],"cAMP accumulation response, single replicate values (source data, Supplementary Figure 5)",hTA1 V184P; M = -8.522,37.1877 and 24.6764 and 37.2847 and 29.115 and 34.8328 and 41.87
same,"cAMP accumulation response, single replicate values (source data, Supplementary Figure 5)",hTA1 V184P; M = -9,15.9475 and 18.9541 and 11.3891 and 32.8169 and 25.9629 and 26.2194
same,"cAMP accumulation response, single replicate values (source data, Supplementary Figure 5)",hTA1 V184P; M = -9.522,4.018 and 3.436 and 4.212 and 11.3752 and 7.6 and 9.799
same,"cAMP accumulation response, single replicate values (source data, Supplementary Figure 5)",hTA1 V184P; M = -10,0.7205 and 0.9145 and 0.5265 and 3.678 and 2.945 and 4.778
same,"cAMP accumulation response, single replicate values (source data, Supplementary Figure 5)",hTA1 V184P; M = -10.522,-0.3463 and -0.9283 and 0.2356 and 0.1229 and 0.08625 and 0.5627
same,"cAMP accumulation response, single replicate values (source data, Supplementary Figure 5)",hTA1 V184P; M = -11,-1.316 (2×) and -1.4132 and 1.516 and -0.5368 and 1.039
same,"cAMP accumulation response, single replicate values (source data, Supplementary Figure 5)",hTA1 V184P; M = -11.522,-1.51 and -1.219 and -1.704 and 2.615 and 1.516 and 1.552
same,"cAMP accumulation response, single replicate values (source data, Supplementary Figure 5)",hTA1 V184P; M = -12,-1.316 and -1.51 and -1.801 and 15.6269 and 16.9097 and 12.5114
same,"cAMP accumulation response, single replicate values (source data, Supplementary Figure 5)",hTA1 V184P; M = -12.522,-1.4132 and -1.51 and -0.9283 and 2.505 and 1.149 and 1.736
same,"ΔpEC50 values (each mutant value - WT average), Mean",hTA1 V184P; hTA1 V184P mutant minus WT average,0.1338 and 0.2823
same,"Emax values, Mean","hTA1 V184P; hTA1 V184P mutant, β-PEA set to 100, each grid row a separate experiment, 3 replicates",78.2024
same,EC50,"hTA1 V184P; pEC50 values (Mean), hTA1 V184P mutant, Figure 3B source data, each grid row a separate experiment, 3 replicates",3.92 nM and 2.79 nM
same,EC50,"hTA1 V184P; pEC50 ± SEM, V184P, n=2",3.31 nM
same,Emax,"hTA1 V184P; read-out: Emax values (Mean), hTA1 V184P mutant, β-PEA set to 100, each grid row a separate experiment, 3 replicates",81.5%
same,Emax,"hTA1 V184P; read-out: Span ± SEM (Emax normalized to β-PEA), V184P, n=2",79.8 ± 1.63%
same,Normalized Luminescence Counts,"hTA1 C96S; C96S, M = -5, single replicates (N=2)",-0.5726 and -3.209 and -1.891 and -16.2542 and -4.6346 and -2.698
same,Normalized Luminescence Counts,"hTA1 C96S; C96S, M = -5.522, single replicates (N=2)",-1.891 (2×) and -3.209 and -4.6346 and -8.508 and 10.8582
same,Normalized Luminescence Counts,"hTA1 C96S; C96S, M = -6, single replicates (N=2)",4.041 and -2.55 and -0.5726 and 5.048 (2×) and -10.4444
same,Normalized Luminescence Counts,"hTA1 C96S; C96S, M = -6.522, single replicates (N=2)",1.4045 and -2.55 and 2.723 and -0.7614 and -4.6346 and 3.112
same,Normalized Luminescence Counts,"hTA1 C96S; C96S, M = -7, single replicates (N=2)",2.723 and -1.891 and 1.4045 and -0.7614 (2×) and -4.6346
same,Normalized Luminescence Counts,"hTA1 C96S; C96S, M = -7.522, single replicates (N=2)",5.359 and -3.209 and 2.723 and -0.7614 and -10.4444 and 14.7315
same,Normalized Luminescence Counts,"hTA1 C96S; C96S, M = -8, single replicates (N=2)",2.064 and -0.5726 (2×) and 30.2243 and -8.508 and 12.7948
same,Normalized Luminescence Counts,"hTA1 C96S; C96S, M = -8.522, single replicates (N=2)",0.7455 and -1.891 and 4.7 and 14.7315 and 3.112 and 12.7948
same,Normalized Luminescence Counts,"hTA1 C96S; C96S, M = -9, single replicates (N=2)",0.7455 and -1.232 and -1.891 and 18.6047 and 8.922 and -4.6346
same,Normalized Luminescence Counts,"hTA1 C96S; C96S, M = -9.522, single replicates (N=2)",0.08646 and -3.209 and -2.55 and 3.112 and 1.175 and -0.7614
same,Normalized Luminescence Counts,"hTA1 C96S; C96S, M = -10, single replicates (N=2)",1.4045 and -0.5726 and 0.7455 and 3.112 and -2.698 (2×)
same,Normalized Luminescence Counts,"hTA1 C96S; C96S, M = -10.522, single replicates (N=2)",-0.5726 and -2.55 and -1.232 and 5.048 and 6.985 and -2.698
same,Normalized Luminescence Counts,"hTA1 C96S; C96S, M = -11, single replicates (N=2)",0.7455 and 0.08646 and 4.7 and 32.1609 and 18.6047 and 10.8582
same,Normalized Luminescence Counts,"hTA1 C96S; C96S, M = -11.522, single replicates (N=2)",3.382 and 0.7455 and 1.4045 and 20.5413
same,Normalized Luminescence Counts,"hTA1 C96S; M = -11.522, single replicates, mutant block above C178S",0.4362 and 0.4589 and 0.8459 and 2.031 and 1.818 and 1.444
same,Normalized Luminescence Counts,"hTA1 C96S; M = -12, single replicates, mutant block above C178S",0.6183 and 0.1175 and -0.01903 and 3.527 and 0.8561 and 0.9629
same,Normalized Luminescence Counts,"hTA1 C96S; M = -12.522, single replicates, mutant block above C178S",-0.1556 (2×) and -0.2011 and 1.711 and 1.818 and 0.6424
same,EC50,hTA1 b2N,1.56 nM
same,Emax,hTA1 b2N; read-out: Span ± SEM (Emax normalized to β-PEA),97.7 ± 9.34%
